The values below come from patent US7704995B2 (Exelixis, Inc., priority 2003, dated 2010).

For one assay, the target named is T1, Chk1 (Homo sapiens, UniProt O14757).
T1 construct: purchased Upstate Biotechnology
T1 sequence (O14757 1-476): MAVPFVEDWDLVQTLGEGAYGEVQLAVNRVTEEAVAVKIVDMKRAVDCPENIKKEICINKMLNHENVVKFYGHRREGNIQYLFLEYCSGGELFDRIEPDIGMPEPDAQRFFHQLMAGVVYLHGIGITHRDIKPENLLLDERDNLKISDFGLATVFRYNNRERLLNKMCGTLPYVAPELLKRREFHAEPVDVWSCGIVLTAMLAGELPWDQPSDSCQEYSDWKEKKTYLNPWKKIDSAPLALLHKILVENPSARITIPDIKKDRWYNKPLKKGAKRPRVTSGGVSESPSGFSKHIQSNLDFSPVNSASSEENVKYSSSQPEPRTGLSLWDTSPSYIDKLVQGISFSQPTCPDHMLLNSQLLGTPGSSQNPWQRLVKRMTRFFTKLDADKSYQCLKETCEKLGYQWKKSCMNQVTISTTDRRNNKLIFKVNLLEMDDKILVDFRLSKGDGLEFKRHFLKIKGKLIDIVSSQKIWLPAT
The assay is described as follows: Chk1 kinase assay: incorporation of γ-33P ATP into immobilized myelin basic protein. Type of assay: biochemical. The conditions noted are these: Table 11, Chk1 only; class symbols A-D; read-out: Chk1 IC50. The procedure, abridged: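 Plates coated with MBP, then kinase reactions in Hepes pH 7.6 buffer with 10 mM MgCl2 and 1% DMSO were started by adding unlabeled plus γ-33P ATP (10 μM for Chk1 at 10 nM enzyme; 30 μM for Chk2 at 20 nM enzyme). After 1 h at room temperature, plates were washed and counted.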
By IC50 is commonly meant the concentration at which inhibition is half-maximal. Consider `Nc1ncc(-c2cccc(CN[C@H]3CCCc4ccccc43)c2)nc1C(=O)N[C@H]1CCNC1` [Example 808, 3-amino-N-[(3S)pyrrolidin-3-yl]-6-(3-{[(1S)-1,2,3,4-tetrahydronaphthalen-1-ylamino]methyl}phenyl)pyrazine-2-carboxamide], for which the IC50 was less than 50 nM. `Nc1ncc(-c2cccc(C(=O)NCc3cccc(Cl)c3F)c2)nc1C(=O)N[C@H]1CCCCNC1` [Example 1024, 3-amino-N-[(3S)-azepan-3-yl]-6-[3-({[(3-chloro-2-fluorophenyl)methyl]amino}carbonyl)phenyl]pyrazine-2-carboxamide]: the concentration for half-maximal inhibition (IC50) is less than 50 nM. Still for that read-out and setting: next, `Nc1ncc(-c2cccc(C(=O)NCc3ccccc3Br)c2)nc1C(=O)N[C@H]1CCCNC1` [Example 872, 3-amino-6-[3-({[(2-bromophenyl)methyl]amino}carbonyl)phenyl]-N-[(3S)-piperidin-3-yl]pyrazine-2-carboxamide]: less than 50 nM.

As for `CSc1ccc(CNC(=O)c2cccc(-c3cnc(N)c(C(=O)N[C@H]4CCCNC4)n3)c2)cc1` [Example 864, 3-amino-6-{3-[({[4-(methylthio)phenyl]methyl}amino)carbonyl]phenyl}-N-[(3S)-piperidin-3-yl]pyrazine-2-carboxamide], the IC50 is less than 50 nM.

For `CC(C)(C)OC(=O)N1CC[C@H](NC(=O)c2nc(-c3cccc(C(=O)NCc4ccc(Cl)cc4Cl)c3)cnc2N)C1` [Example 822, 1,1-dimethylethyl (3S)-3-[({3-amino-6-[3-({[(2,4-dichlorophenyl)methyl]amino}carbonyl)phenyl]pyrazin-2-yl}carbonyl)amino]pyrrolidine-1-carboxylate], the IC50 fell in the range of 1000 to 10000 nM. Consider `Nc1ncc(-c2cccc(C(=O)NCc3ccc(F)c(F)c3F)c2)nc1C(=O)N[C@H]1CCCNC1` [Example 1016, 3-amino-N-[(3S)-piperidin-3-yl]-6-[3-({[(2,3,4-trifluorophenyl)methyl]amino}carbonyl)phenyl]pyrazine-2-carboxamide], for which the IC50 is less than 50 nM.

Consider `Nc1ncc(-c2cccc(CNC(=O)c3ccco3)c2)nc1C(=O)N[C@H]1CCCNC1` [Example 934, 3-amino-6-(3-{[(furan-2-ylcarbonyl)amino]methyl}phenyl)-N-[(3S)-piperidin-3-yl]pyrazine-2-carboxamide], for which the half-maximal inhibitory concentration (IC50) was less than 50 nM. Same read-out and setting: next, `Nc1ncc(-c2cccc(C(=O)NCc3cc(F)cc(F)c3F)c2)nc1C(=O)N[C@H]1CCNC1` [Example 816, 3-amino-N-[(3S)-pyrrolidin-3-yl]-6-[3-({[(2,3,5-trifluorophenyl)methyl]amino}carbonyl)phenyl]pyrazine-2-carboxamide]: 50 to 1000 nM.

Still in this assay, the particulars now being: Table 11; Chk1 only; read-out: Chk1 IC50.
Consider `CNC(=O)c1nc(-c2cccc(CNCc3ccc(-c4ccco4)cc3F)c2)cnc1N` [Example 451, 3-amino-6-[3-({[(2-fluoro-4-furan-2-ylphenyl)methyl]amino}methyl)phenyl]-N-methylpyrazine-2-carboxamide], for which the IC50 was less than 50 nM. With `CNC(=O)c1nc(-c2cccc(C(=O)NNc3c(F)c(F)c(C)c(F)c3F)c2)cnc1N` [Example 431, 3-amino-N-methyl-6-(3-{[2-(2,3,5,6-tetrafluoro-4-methylphenyl)hydrazino]carbonyl}phenyl)pyrazine-2-carboxamide], the half-maximal inhibitory concentration (IC50) lay in the range of 50 to 1000 nM. Still for that read-out and setting: next, `CNC(=O)c1nc(-c2cccc([C@H](C)N[C@H]3CCc4ccccc43)c2)cnc1N` [Example 750, 3-amino-6-(3-{(1S)-1-[(1S)-2,3-dihydro-1H-inden-1-ylamino]ethyl}phenyl)-N-methylpyrazine-2-carboxamide]: 50 to 1000 nM. The same measure, in the same setting: the value for `Nc1cc(-c2n[nH]c(-c3nc(-c4cccc(CO)c4)cnc3N)n2)ccn1` [Example 798, (3-{5-amino-6-[3-(2-aminopyridin-4-yl)-1H-1,2,4-triazol-5-yl]pyrazin-2-yl}phenyl)methanol] was 50 to 1000 nM; that for `CNC(=O)c1nc(-c2cccc(C(=O)NNc3ccc(F)cc3F)c2)cnc1N` [Example 433, 3-amino-6-(3-{[2-(2,4-difluorophenyl)hydrazino]carbonyl}phenyl)-N-methylpyrazine-2-carboxamide] was 50 to 1000 nM; that for `Nc1ncc(-c2cccc(C(=O)N[C@H]3CCc4ccccc43)c2)nc1-c1n[nH]c(CCOCc2ccccc2)n1` [Example 771, 3-[5-amino-6-(5-{2-[(phenylmethyl)oxy]ethyl}-1H-1,2,4-triazol-3-yl)pyrazin-2-yl]-N-[(1S)-2,3-dihydro-1H-inden-1-yl]benzamide] was 1000 to 10000 nM.

For the compound `Nc1ncc(-c2cccc(C(=O)NCc3ccccc3)c2)nc1C(=O)NCCNC(=O)c1cnc2ccccc2n1` [Example 663, N-[2-({[3-amino-6-(3-{[(phenylmethyl)amino]carbonyl}phenyl)pyrazin-2-yl]carbonyl}amino)ethyl]quinoxaline-2-carboxamide], the IC50 is no less than 10000 nM.

Regarding `Nc1ncc(-c2cccc(C(=O)NCc3ccccc3)c2)nc1C(=O)NCCNC(=O)c1ccco1` [Example 659, 3-amino-N-{2-[(furan-2-ylcarbonyl)amino]ethyl}-6-(3-{[(phenylmethyl)amino]carbonyl}phenyl)pyrazine-2-carboxamide], the IC50 is no less than 10000 nM. The same measure, in the same setting: next, `C/C(=N\Nc1nccc(C(F)(F)F)n1)c1nc(-c2cccc(C(=O)NCc3ccccc3)c2)cnc1N` [Example 636, 3-(5-amino-6-{(1E)-N-[4-(trifluoromethyl)pyrimidin-2-yl]ethanehydrazonoyl}pyrazin-2-yl)-N-(phenylmethyl)benzamide]: 1000 to 10000 nM. Turning to `Nc1ncc(-c2cccc(C(=O)NCc3ccccc3)c2)nc1C(=O)N[C@H]1CCN(Cc2ccccn2)C1` [Example 696, 3-amino-6-(3-{[(phenylmethyl)amino]carbonyl}phenyl)-N-[(3S)-1-(pyridin-2-ylmethyl)pyrrolidin-3-yl]pyrazine-2-carboxamide], the IC50 fell in the range of 50 to 1000 nM. Same read-out and setting: the value for `Nc1ncc(-c2cccc(C(=O)N[C@H]3CCc4ccccc43)c2)nc1C(=O)N[C@@H]1CCNC1` [Example 645, 3-amino-6-(3-{[(1S)-2,3-dihydro-1H-inden-1-ylamino]carbonyl}phenyl)-N-[(3R)-pyrrolidin-3-yl]pyrazine-2-carboxamide] was 50 to 1000 nM; that for `C/C(=N\Nc1ccccn1)c1nc(-c2cccc(C(=O)NCc3ccccc3)c2)cnc1N` [Example 632, 3-{5-amino-6-[(1E)-N-pyridin-2-ylethanehydrazonoyl]pyrazin-2-yl}-N-(phenylmethyl)benzamide] was no less than 10000 nM.

The same assay, now with this note: read-out: Chk1 IC50.
Turning to `CNC(=O)c1nc(-c2cccc(CN[C@H](C)c3ccccc3)c2)cnc1N` [Example 420, 3-amino-N-methyl-6-[3-({[(1R)-1-phenylethyl]amino}methyl)phenyl]pyrazine-2-carboxamide], the half-maximal inhibitory concentration (IC50) fell in the range of 50 to 1000 nM.

As to `CNC(=O)c1nc(-c2cccc(CNC(=O)c3ccc(C(C)C)cc3)c2)cnc1N` [Example 374, 3-amino-N-methyl-6-{3-[({[4-(1-methylethyl)phenyl]carbonyl}amino)methyl]phenyl}pyrazine-2-carboxamide], the IC50 was in the range of 50 to 1000 nM. On the same count and under the same terms, the value for `CNC(=O)c1nc(-c2cccc(C(=O)NCc3ccccc3O)c2)cnc1N` [Example 327, 3-amino-6-[3-({[(2-hydroxyphenyl)methyl]amino}carbonyl)phenyl]-N-methylpyrazine-2-carboxamide] was 50 to 1000 nM; that for `CNC(=O)c1nc(-c2cccc(C(=O)NCc3ccc(Cl)c(C(F)(F)F)c3)c2)cnc1N` [Example 229, 3-amino-6-{3-[({[4-chloro-3-(trifluoromethyl)phenyl]methyl}amino)carbonyl]phenyl}-N-methylpyrazine-2-carboxamide] was 50 to 1000 nM. Still for that read-out and setting: the value for `CNC(=O)c1nc(-c2cccc(C(=O)NCc3ccccc3)c2)cnc1N` [Example 84, 3-amino-N-methyl-6-(3-{[(phenylmethyl)amino]carbonyl}phenyl)pyrazine-2-carboxamide] was 50 to 1000 nM; that for `CNC(=O)c1nc(-c2cccc(C(=O)NCC(c3ccccc3)c3ccccc3)c2)cnc1N` [Example 263, 3-amino-6-(3-{[(2,2-diphenylethyl)amino]carbonyl}phenyl)-N-methylpyrazine-2-carboxamide] was 50 to 1000 nM; that for `CNC(=O)c1nc(-c2cccc(S(C)(=O)=O)c2)cnc1N` [Example 234, 3-amino-N-methyl-6-[3-(methylsulfonyl)phenyl]pyrazine-2-carboxamide] was 1000 to 10000 nM. The same measure, in the same setting: the value for `CNC(=O)c1nc(-c2cccc(C(=O)NC3CCCCC3)c2)cnc1N` [Example 133, 3-amino-6-{3-[(cyclohexylamino)carbonyl]phenyl}-N-methylpyrazine-2-carboxamide] was 1000 to 10000 nM.

Turning to `CNC(=O)c1nc(-c2cccc(CNC(=O)c3ccc4ccccc4c3)c2)cnc1N` [Example 311, 3-amino-N-methyl-6-(3-{[(naphthalen-2-ylcarbonyl)amino]methyl}phenyl)pyrazine-2-carboxamide], the half-maximal inhibitory concentration (IC50) fell in the range of 50 to 1000 nM. On the same count and under the same terms, next, `CNC(=O)c1nc(-c2cccc(C(=O)NCc3cccc(OC)c3)c2)cnc1N` [Example 107, 3-amino-N-methyl-6-{3-[({[3-(methyloxy)phenyl]methyl}amino)carbonyl]phenyl}pyrazine-2-carboxamide]: 50 to 1000 nM.
